Experimental data taken from patent publication US20260151375A1, “CDK2 INHIBITORS AND METHODS OF USING THE SAME” (Cedilla Therapeutics, Inc., priority 2022, published 2026).
Where two headings read alike, the source gives them in different places.

What was measured:
CDK2/Cyclin E1 [1] = molecular target: T1, CDK2/Cyclin E1 (Homo sapiens, UniProt P24941); assay: Caliper Assay (LabChip EZ Reader mobility shift assay), inhibition of CDK2/Cyclin E1 activity; type: biochemical; conditions: 2.5 nM CDK2/Cyclin E1(14-475), 100 μM ATP, 30 min preincubation; read-out: Caliper Assay (CDK2/CCNE1): IC50
T1 construct: purchased 14-475
Method in brief: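 Compounds were preincubated 30 min with CDK2/Cyclin E1(14-475), then run for 100 min with 2.5 nM enzyme, 100 μM ATP and 1.5 μM 5-FAM-QSPKKG peptide in HEPES pH 7.5 (final). Reactions were EDTA-stopped and substrate-to-product conversion read by mobility shift. IC50 came from a four-parameter fit.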

CDK2/Cyclin E1 [2] = molecular target: T1, CDK2/Cyclin E1; assay: ADPGLO (CDK2/E1-37 C), ADP-Glo Luminescent Kinase Assay; type: biochemical; conditions: 0.18 nM CDK2/Cyclin E1, 100 μM ATP, Histone H1, 37° C.
Experimental: Inhibition of CDK2/Cyclin E1 activity by the presence of small molecules was evaluated using ADP-Glo Luminescent Kinase Assay (Promega). Activated CDK2/Cyclin E1 was incubated with its substrate Histone H1 (SignalChem H10-54N) in the kinase reaction buffer (100 μM ATP, 50 mM HEPES pH 7.5, 10 mM MgCl2, 1 mM EDTA, 2 mM DTT, 0.01% Brij35, 0.5 mg/mL BSA). Luminescence was recorded with an Envision plate reader (PerkinElmer).
Dose titrations of inhibitors in 100% DMSO were combined with 0.36 nM CDK2/Cyclin E1 in reaction buffer. The mixtures were incubated for 60 minutes at 37° C. before the addition of ATP and Histone H1 substrate to initiate the kinase reaction. The final conditions were 0.18 nM CDK2/Cyclin E1, 100 μM ATP, and 1.5 μM Histone H1. The reactions were incubated at 37° C. for 90 minutes before being stopped with the addition of ADP-Glo reagent. This mixture was incubated at room temperature for 60 minutes before Kinase Detection Solution is added to generate luminescence. The stopped reactions were analyzed on an Envision plate reader. The conversion ratios were normalized to yield % activity, plotted against compound concentration, and fit to a four-parameter equation to determine the IC50 for each compound.

Kuramochi cells = assay: IncuCyte Kuramochi Assay (cell proliferation); type: cell-based; conditions: Kuramochi cells labeled with mApple-H2B, cell count, read-out: IncuCyte - Kuramochi RB-WT: IC50
Method in brief: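 Cells imaged at 0 and 72 h after compound treatment (10 points, ½ log dilution, 20 μM top), with fluorescent nuclei counted. Fold change in count was normalized to DMSO wells and fitted to dose-response curves to give GI50.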

| SMILES | IC50 (CDK2/Cyclin E1 [1]) | IC50 (CDK2/Cyclin E1 [2]) | IC50 (Kuramochi cells; 72 hours) | IC50 (Kuramochi cells; 72 h) |
| --- | --- | --- | --- | --- |
| CC(c1nc(C2CN(C(=O)c3cncs3)CC23CN(C(=O)[C@H]2CC2(C)C)C3)no1)n1ccc(C2CCCC2)n1 (single isomer, unassigned) [I-36 2nd] | 1 to 10 µM | > 10 µM | > 10 µM |  |
| CC(c1nc(C2CN(C(=O)c3cncs3)CC23CN(C(=O)[C@H]2CC2(C)C)C3)no1)n1ccc(C2CCCC2)n1 (single isomer, unassigned) [I-36 3rd] | 0.01 to 0.1 µM | ≤ 0.5 µM | > 10 µM |  |
| CC1(C)C[C@@H]1C(=O)N1CC2(CN(C(=O)c3cnccn3)CC2c2nnc(C(F)(F)c3ccc(Cl)c(Cl)c3)o2)C1 (single isomer, unassigned) [I-45 2nd] | 0.1 to 1 µM | > 10 µM | > 10 µM |  |
| CC1(C)C[C@@H]1C(=O)N1CC2(CN(C(=O)c3cnn(Cc4ccccc4)c3)C[C@H]2c2nnc(Cc3ccc(Cl)c(Cl)c3)o2)C1 [I-15, (1-benzyl-1H-pyrazol-4-yl)((S)-8-(5-(3,4-dichlorobenzyl)-1,3,4-oxadiazol-2-yl)-2-((S)-2,2-dimethylcyclopropane-1-carbonyl)-2,6-diazaspiro[3.4]octan-6-yl)methanone] | 0.01 to 0.1 µM | 0.5 to 5 µM |  | 5 to 10 µM |
| CC(c1nc(C2CN(C(=O)c3cnn(Cc4ccc(OC(C)(C)C(=O)O)cc4)c3)CC23CN(C(=O)[C@H]2CC2(C)C)C3)no1)n1ccc(C2CCCC2)n1 (stereo partly drawn) [I-124] |  | 0.5 to 5 µM |  | > 10 µM |
| C=CC(=O)N(C)c1cccc(Cc2ccc(Cn3cc(C(=O)N4CC(c5nnc(C(F)(F)c6ccc(Cl)c(Cl)c6)o5)C5(C4)CN(C(=O)C4(C(F)(F)F)CC4)C5)cn3)cc2)c1 (stereo not drawn) [I-208] |  | > 10 µM |  | > 10 µM |
| O=C(c1cnc(O)cn1)N1CC(c2nnc(C(C(=O)N3CCC(c4nccs4)CC3)c3ccc(C4CCOCC4)cc3)o2)C2(C1)CN(C(=O)C1(C(F)(F)F)CC1)C2 (stereo not drawn) [I-209] |  | > 10 µM |  | ≤ 0.5 µM |
| O=C(c1cnn(Cc2ccc(C(F)(F)F)cc2)c1)N1CC(c2noc(N(Cc3ccc(Cl)c(Cl)c3)CC3CCOCC3)n2)C2(C1)CN(C(=O)C1(C(F)(F)F)CC1)C2 (stereo not drawn) [I-213, (8-(5-((3,4-dichlorobenzyl)((tetrahydro-2H-pyran-4-yl)methyl)amino)-1,2,4-oxadiazol-3-yl)-2-(1-(trifluoromethyl)cyclopropane-1-carbonyl)-2,6-diazaspiro[3.4]octan-6-yl)(1-(4-(trifluoromethyl)benzyl)-1H-pyrazol-4-yl)methanone] |  | > 10 µM |  | 5 to 10 µM |
| O=C(c1cnn(Cc2ccc(C(F)(F)F)cc2)c1)N1CC(c2nnc(C(C(=O)N3CCC(c4nccs4)CC3)c3ccc(C4CCOCC4)cc3)o2)C2(C1)CN(C(=O)C1(C(F)(F)F)CC1)C2 (stereo not drawn) [I-216, 2-(4-(tetrahydro-2H-pyran-4-yl)phenyl)-1-(4-(thiazol-2-yl)piperidin-1-yl)-2-(5-(6-(1-(4-(trifluoromethyl)benzyl)-1H-pyrazole-4-carbonyl)-2-(1-(trifluoromethyl)cyclopropane-1-carbonyl)-2,6-diazaspiro[3.4]octan-8-yl)-1,3,4-oxadiazol-2-yl)ethan-1-one] |  | ≤ 0.5 µM |  | 0.5 to 5 µM |
| CC1(C)C[C@@H]1C(=O)N1CC2(CN(C(=O)c3cncs3)CC2c2nc3ccc(Oc4ccccc4-c4cncs4)cc3o2)C1 (stereo partly drawn) [I-221, (2-((S)-2,2-dimethylcyclopropane-1-carbonyl)-8-(6-(2-(thiazol-5-yl)phenoxy)benzo[d]oxazol-2-yl)-2,6-diazaspiro[3.4]octan-6-yl)(thiazol-5-yl)methanone] |  | 0.5 to 5 µM |  | 5 to 10 µM |
| Cc1nc(C(=O)N2C[C@H](c3noc(C(C)n4ccc(C5CCOCC5)n4)n3)C3(C2)CN(C(=O)C2(C(F)(F)F)CC2)C3)cnc1O (stereo partly drawn) [I-224, (5-hydroxy-6-methylpyrazin-2-yl)((8R)-8-(5-(1-(3-(tetrahydro-2H-pyran-4-yl)-1H-pyrazol-1-yl)ethyl)-1,2,4-oxadiazol-3-yl)-2-(1-(trifluoromethyl)cyclopropanecarbonyl)-2,6-diazaspiro[3.4]octan-6-yl)methanone] |  | > 10 µM |  | > 10 µM |
| CC(c1nc(C2CN(C(=O)c3cnc(O)c(C(F)(F)F)n3)CC23CN(C(=O)C2(C(F)(F)F)CC2)C3)no1)n1ccc(C2CCOCC2)n1 (stereo not drawn) [I-225, (5-Hydroxy-6-(trifluoromethyl)pyrazin-2-yl)(8-(5-(1-(3-(tetrahydro-2H-pyran-4-yl)-1H-pyrazol-1-yl)ethyl)-1,2,4-oxadiazol-3-yl)-2-(1-(trifluoromethyl)cyclopropane-1-carbonyl)-2,6-diazaspiro[3.4]octan-6-yl)methanone] |  | 5 to 10 µM |  | > 10 µM |

Second part, led by results:

| IC50 (CDK2/Cyclin E1 [1]) | IC50 (CDK2/Cyclin E1 [2]) | SMILES | IC50 (Kuramochi cells; 72 hours) | IC50 (Kuramochi cells; 72 h) |
| --- | --- | --- | --- | --- |
|  | > 10 µM | CC(c1nc(C2CN(C(=O)c3cnn(Cc4ccc(C#N)cc4)c3)CC23CN(C(=O)C2(C(F)(F)F)CC2)C3)no1)n1ccc(C(F)(F)F)n1 (stereo not drawn) [I-207] |  | > 10 µM |
|  | 0.5 to 5 µM | CC(c1nc(C2CN(C(=O)c3cnn(Cc4ccc(C#N)cc4)c3)CC23CN(C(=O)C2(C(F)(F)F)CC2)C3)no1)n1ccc(C2CCC(F)(F)CC2)n1 (stereo not drawn) [I-210] |  | ≤ 0.5 µM |
|  | 0.5 to 5 µM | CC(c1nc(C2CN(C(=O)c3cnn(Cc4ccc(C#N)cc4C(=O)O)c3)CC23CN(C(=O)C2(C(F)(F)F)CC2)C3)no1)n1ccc(C2(C(F)(F)F)CC2)n1 (stereo not drawn) [I-214] |  | > 10 µM |
|  | 0.5 to 5 µM | COC(=O)c1cc(C#N)ccc1Cn1cc(C(=O)N2CC(c3noc(C(C)n4ccc(C5(C(F)(F)F)CC5)n4)n3)C3(C2)CN(C(=O)C2(C(F)(F)F)CC2)C3)cn1 (stereo not drawn) [I-215] |  | 5 to 10 µM |
|  | 0.5 to 5 µM | CC(c1nc(C2CN(C(=O)c3cnn(Cc4ccc(C(F)(F)F)cc4)c3)CC23CN(C(=O)C2(C(F)(F)F)CC2)C3)no1)n1ccc(C23CCC(CC2)OC3)n1 (stereo not drawn) [I-217, (8-(5-(1-(3-(2-oxabicyclo[2.2.2]octan-4-yl)-1H-pyrazol-1-yl)ethyl)-1,2,4-oxadiazol-3-yl)-2-(1-(trifluoromethyl)cyclopropane-1-carbonyl)-2,6-diazaspiro[3.4]octan-6-yl)(1-(4-(trifluoromethyl)benzyl)-1H-pyrazol-4-yl)methanone] |  | 5 to 10 µM |
|  | > 10 µM | CC(c1nc(C2CN(C(=O)c3cnn(Cc4ccc(C(F)(F)F)cc4C(=O)O)c3)CC23CN(C(=O)C2(C(F)(F)F)CC2)C3)no1)n1ccc(C2(C(F)(F)F)CC2)n1 (stereo not drawn) [I-218, 5-(trifluoromethyl)-2-((4-(2-(1-(trifluoromethyl)cyclopropane-1-carbonyl)-8-(5-(1-(3-(1-(trifluoromethyl)cyclopropyl)-1H-pyrazol-1-yl)ethyl)-1,2,4-oxadiazol-3-yl)-2,6-diazaspiro[3.4]octane-6-carbonyl)-1H-pyrazol-1-yl)methyl)benzoic acid] |  | > 10 µM |
|  | > 10 µM | COC(=O)c1cc(C(F)(F)F)ccc1Cn1cc(C(=O)N2CC(c3noc(C(C)n4ccc(C5(C(F)(F)F)CC5)n4)n3)C3(C2)CN(C(=O)C2(C(F)(F)F)CC2)C3)cn1 (stereo not drawn) [I-219, methyl 5-(trifluoromethyl)-2-((4-(2-(1-(trifluoromethyl)cyclopropane-1-carbonyl)-8-(5-(1-(3-(1-(trifluoromethyl)cyclopropyl)-1H-pyrazol-1-yl)ethyl)-1,2,4-oxadiazol-3-yl)-2,6-diazaspiro[3.4]octane-6-carbonyl)-1H-pyrazol-1-yl)methyl)benzoate] |  | > 10 µM |
|  | 0.5 to 5 µM | CC(c1nc(C2CN(C(=O)c3cnn(Cc4ccccc4C(=O)O)c3)CC23CN(C(=O)C2(C(F)(F)F)CC2)C3)no1)n1ccc(C2(C(F)(F)F)CC2)n1 (stereo not drawn) [I-220, 2-((4-(2-(1-(trifluoromethyl)cyclopropane-1-carbonyl)-8-(5-(1-(3-(1-(trifluoromethyl)cyclopropyl)-1H-pyrazol-1-yl)ethyl)-1,2,4-oxadiazol-3-yl)-2,6-diazaspiro[3.4]octane-6-carbonyl)-1H-pyrazol-1-yl)methyl)benzoic acid] |  | > 10 µM |
|  | > 10 µM | COC(=O)c1ccccc1Cn1cc(C(=O)N2CC(c3noc(C(C)n4ccc(C5(C(F)(F)F)CC5)n4)n3)C3(C2)CN(C(=O)C2(C(F)(F)F)CC2)C3)cn1 (stereo not drawn) [I-222] |  | > 10 µM |
|  | > 10 µM | CC(c1nc(C2CN(C(=O)c3cnn(Cc4ccc(C(F)(F)F)cc4)c3)CC23CN(C(=O)C2(C(F)(F)F)CC2)C3)no1)n1ccc(C2(C(F)(F)F)CC2)n1 (stereo not drawn) [I-223, (1-(4-(trifluoromethyl)benzyl)-1H-pyrazol-4-yl)(2-(1-(trifluoromethyl)cyclopropane-1-carbonyl)-8-(5-(1-(3-(1-(trifluoromethyl)cyclopropyl)-1H-pyrazol-1-yl)ethyl)-1,2,4-oxadiazol-3-yl)-2,6-diazaspiro[3.4]octan-6-yl)methanone] |  | 5 to 10 µM |
